Source: the supplement of paper PMC10307832

Key:
Test in all cases: relative viability (nuclei count vs DMSO), 5 days (fraction); higher = more cells survive
Ponatinib + Crizotinib = compound: Cc1ccc(C(=O)Nc2ccc(CN3CCN(C)CC3)c(C(F)(F)F)c2)cc1C#Cc1cnc2cccnn12 [Ponatinib] + C[C@@H](Oc1cc(-c2cnn(C3CCNCC3)c2)cnc1N)c1c(Cl)ccc(F)c1Cl [Crizotinib] (partner 1 µM)
Method in brief: (§1)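 Values are medians from duplicate plates. Each reflects relative viability, defined as the nuclei count of treated wells over that of vehicle wells. Lung cancer cell lines in 1536-well plates were pin-tool dosed one day after seeding with one drug alone or with a fixed anchor-drug dose plus five library-drug doses (not always all listed) in √10 steps, then fixed, stained and imaged at 4× after 5 days.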

Pazopanib + Trametinib = compound: Cc1ccc(Nc2nccc(N(C)c3ccc4c(C)n(C)nc4c3)n2)cc1S(N)(=O)=O [Pazopanib] + CC(=O)Nc1cccc(-n2c(=O)n(C3CC3)c(=O)c3c(Nc4ccc(I)cc4F)n(C)c(=O)c(C)c32)c1 [Trametinib] (partner 0.02 µM)
Method in brief: as §1

Pazopanib + Tozasertib = compound: Cc1ccc(Nc2nccc(N(C)c3ccc4c(C)n(C)nc4c3)n2)cc1S(N)(=O)=O [Pazopanib] + Cc1cc(Nc2cc(N3CCN(C)CC3)nc(Sc3ccc(NC(=O)C4CC4)cc3)n2)n[nH]1 [Tozasertib] (partner 0.1 µM)
Method in brief: as §1

Pazopanib + Decitabine = compound: Cc1ccc(Nc2nccc(N(C)c3ccc4c(C)n(C)nc4c3)n2)cc1S(N)(=O)=O [Pazopanib] + Nc1ncn([C@H]2C[C@H](O)[C@@H](CO)O2)c(=O)n1 [Decitabine] (partner 2 µM)
Method in brief: as §1

Cell Line: UMC-11
- relative viability (Ponatinib + Crizotinib; first compound 0.002 µM): 0.678
- relative viability (Ponatinib + Crizotinib; first compound 0.006325 µM): 0.603
- relative viability (Ponatinib + Crizotinib; first compound 0.06325 µM): 0.786
- relative viability (Ponatinib + Crizotinib; first compound 0.2 µM): 0.612
- relative viability (Pazopanib + Trametinib; first compound 0.01 µM): 0.552
- relative viability (Pazopanib + Trametinib; first compound 0.03162 µM): 0.732
- relative viability (Pazopanib + Trametinib; first compound 0.1 µM): 0.672
- relative viability (Pazopanib + Trametinib; first compound 0.3162 µM): 0.756
- relative viability (Pazopanib + Trametinib; first compound 1 µM): 0.846
- relative viability (Pazopanib + Tozasertib; first compound 0.01 µM): 0.196
- relative viability (Pazopanib + Tozasertib; first compound 0.03162 µM): 0.19
- relative viability (Pazopanib + Tozasertib; first compound 0.1 µM): 0.208
- relative viability (Pazopanib + Tozasertib; first compound 0.3162 µM): 0.206
- relative viability (Pazopanib + Tozasertib; first compound 1 µM): 0.211
- relative viability (Pazopanib + Decitabine; first compound 0.01 µM): 0.598
- relative viability (Pazopanib + Decitabine; first compound 0.03162 µM): 0.686
- relative viability (Pazopanib + Decitabine; first compound 0.1 µM): 0.616
- relative viability (Pazopanib + Decitabine; first compound 0.3162 µM): 0.578
- relative viability (Pazopanib + Decitabine; first compound 1 µM): 0.49
